According to patent US11672757B2, “Hot melt extrusion for pharmaceutical vaginal film products” (UNIVERSITY OF PITTSBURGH-OF THE COMMONWEALTH SYSTEM OF …, priority 2017, dated 2023):
In brackets after ≈: the same amount, converted by molar mass.

Columns and labels:
human cervical explants = settings: cited from earlier work
rabbit model = settings: in vivo rabbit model; cited from earlier work
TZM-bl cells = format: cell-based
Experimental: A DPV film was dissolved in 2 mL of saline and ten-fold serial dilutions were made. The DPV drug substance stock solution (1000 nM) was mixed in DMSO and serially diluted in DMEM with 10% BSA supplemented with antibiotics, which is the medium used in the TZM-bl assay. All dilution samples were added in triplicates to the TZM-bl cells that were plated. […] For cellular toxicity evaluation, similar set up of the experiment was conducted. Except that for toxicity study, the cells were not exposed to the virus. In this study the cells were exposed to CellTiter-Glo, and luminescence signal was measured. Cellular viability was determined based on the deviation from the cell-only control (Nixon, B., et al., Griffithsin protects mice from genital herpes by preventing cell-to-cell spread. J. Virol., 2013, 87(11):6257-6269).

[1] = tested on: wild type and resistant mutant HIV; settings: cited from earlier work
[2] = pH 9; cited from earlier work
[3] = tested on: G. vaginalis (ATCC 14018); test: Zone of inhibition on HBT plate lawn; format: cell-based, Gardnella vaginalis; settings: 37° C., 6% CO2, 48 hours
Experimental: To test the bioactivity of metronidazole film, Gardnella vaginalis (G. vaginilis) (ATCC 14018) was plated on HBT plates to form a lawn. A metronidazole film was placed in the middle of the plated bacteria and plates were incubated at 37° C. with 6% CO2 for 48 hours. Post incubation, the plates were visually inspected for the formation of a zone of inhibition. Placebo films and metronidazole drug substance were prepared and tested in the same manner as the controls. […] This confirms that G. vaginilis growth is inhibited by the presence of both the metronidazole drug substance alone and within the film. On the other hand, G. vaginilis was not affected by the placebo film.
To test the bioactivity of bacterial/metronidazole combination film, G. vaginalis (ATCC 14018) was plated on Human Blood Tween Bilayer (HBT) plates to form a lawn. Bacteria/metronidazole film was placed in the middle of the HBT plated bacteria and plates were incubated at 37° C. with 6% CO2 for 48 hours. Post incubation, the plates were visually inspected for the formation of a zone of inhibition and L. jensenii growth. Placebo films, metronidazole drug substance, and bacterial loaded film were prepared and tested in the same manner as the controls. […] Therefore, the desired in vivo antimicrobial and probiotic effects of the combination film were confirmed in vitro. […]

In the case of Griffithsin [GRFT], the “safety” value (human cervical explants) is given as “safe” and the “safety” value (rabbit model) is given as “safe”.
For `Cc1cc(C)c(Nc2ccnc(Nc3ccc(C#N)cc3)n2)c(C)c1` [DPV, Dapivirine], the “cellular toxicity” value (TZM-bl cells) is listed as “no cellular toxicity”, the EC50 [1] is listed as 0.3 ng/mL (≈ 0.911 nM) and the EC90 [1] is listed as 0.9 ng/mL (≈ 2.73 nM). For the same compound, the logP [2] was 5.27.
Compound `Cc1ncc([N+](=O)[O-])n1CCO` [Metronidazole] has a zone of inhibition [3] of roughly 1.5 cm.
